Measurements taken from patent US12479840B2, “HMG-CoA reductase degradation inducing compound” (Uppthera, priority 2020, dated 2025).

target: T1, HMG-CoA reductase (Homo sapiens, UniProt P04035); assay: HMG-CoA reductase (HMGCR) degradation in HepG2 cells by western blotting; assay type: cell-based; conditions: treated for 18 hours, ratio of HMG-CoA reductase to GAPDH, read-out: DC50
T1 construct: endogenous in cells; host or cells: HepG2 (Korea Cell Line Bank)
T1 sequence (P04035 1-888): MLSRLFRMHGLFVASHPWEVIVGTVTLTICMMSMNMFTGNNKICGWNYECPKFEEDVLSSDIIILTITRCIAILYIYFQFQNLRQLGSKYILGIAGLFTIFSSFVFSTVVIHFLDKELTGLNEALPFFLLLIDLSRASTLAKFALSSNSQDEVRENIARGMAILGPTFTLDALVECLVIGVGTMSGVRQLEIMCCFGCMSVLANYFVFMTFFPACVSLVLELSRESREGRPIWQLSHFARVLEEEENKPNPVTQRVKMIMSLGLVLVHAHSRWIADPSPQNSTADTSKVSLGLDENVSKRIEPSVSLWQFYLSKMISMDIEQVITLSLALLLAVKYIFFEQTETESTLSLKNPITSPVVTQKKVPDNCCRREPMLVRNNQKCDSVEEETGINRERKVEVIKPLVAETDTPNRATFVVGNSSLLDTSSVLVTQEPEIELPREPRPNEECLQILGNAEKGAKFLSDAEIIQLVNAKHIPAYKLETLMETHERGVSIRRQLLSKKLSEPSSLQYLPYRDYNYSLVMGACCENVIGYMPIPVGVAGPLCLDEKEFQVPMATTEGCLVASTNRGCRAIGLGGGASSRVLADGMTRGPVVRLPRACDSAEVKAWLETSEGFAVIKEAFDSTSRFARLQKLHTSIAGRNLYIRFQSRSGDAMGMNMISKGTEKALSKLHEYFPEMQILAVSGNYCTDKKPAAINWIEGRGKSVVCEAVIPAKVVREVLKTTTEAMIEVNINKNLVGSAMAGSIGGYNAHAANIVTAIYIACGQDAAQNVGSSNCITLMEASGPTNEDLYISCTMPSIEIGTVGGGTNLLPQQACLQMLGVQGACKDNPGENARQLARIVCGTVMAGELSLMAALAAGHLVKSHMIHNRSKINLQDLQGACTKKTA
Procedure, shortened: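 Western blot read-out: HMGCR protein probed (1:500, 16 hours at 4° C) alongside GAPDH loading control on 15 μg BCA-normalised RIPA lysates. Lysates came from HepG2 cells (P105–P110) exposed for 18 hours to a 10-point, three-fold series starting at 3 μM.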

DC50, < 50 nM:
Cc1ncsc1-c1ccc(CNC(=O)[C@@H]2C[C@@H](O)CN2C(=O)[C@@H](NC(=O)CCCc2cn(CCCCNC(=O)O[C@H]3C[C@@H](C)C=C4C=C[C@H](C)[C@H](CC[C@@H]5C[C@@H](O)CC(=O)O5)[C@H]43)nn2)C(C)(C)C)cc1 [Compound 161, (1S,3R,7S,8S,8aR)-8-(2-((2R,4R)-4-hydroxy-6-oxotetrahydro-2H-pyran-2-yl)ethyl)-3,7-dimethyl-1,2,3,7,8,8a-hexahydronaphthalen-1-yl (4-(4-(4-(((S)-1-((2S,4R)-4-hydroxy-2-((4-(4-methylthiazol-5-yl)benzyl)carbamoyl)pyrrolidin-1-yl)-3,3-dimethyl-1-oxobutan-2-yl)amino)-4-oxobutyl)-1H-1,2,3-triazol-1-yl)butyl)carbamate]
Cc1ncsc1-c1ccc(CNC(=O)[C@@H]2C[C@@H](O)CN2C(=O)[C@@H](NC(=O)CCCN2CCC(CCCNC(=O)O[C@@H]3C[C@H](C)C=C4C=C[C@@H](C)[C@@H](CC[C@H]5C[C@H](O)CC(=O)O5)[C@@H]43)CC2)C(C)(C)C)cc1 [Compound 162, (1R,3S,7R,8R,8aS)-8-(2-((2S,4S)-4-hydroxy-6-oxotetrahydro-2H-pyran-2-yl)ethyl)-3,7-dimethyl-1,2,3,7,8,8a-hexahydronaphthalen-1-yl (3-(1-(4-(((S)-1-((2S,4R)-4-hydroxy-2-((4-(4-methylthiazol-5-yl)benzyl)carbamoyl)pyrrolidin-1-yl)-3,3-dimethyl-1-oxobutan-2-yl)amino)-4-oxobutyl)piperidin-4-yl)propyl)carbamate]
Cc1ncsc1-c1ccc(CNC(=O)[C@@H]2C[C@@H](O)CN2C(=O)[C@@H](NC(=O)C2(F)CC2)C(C)(C)C)c(OCCCCCCCCNC(=O)O[C@H]2C[C@@H](C)C=C3C=C[C@H](C)[C@H](CC[C@@H]4C[C@@H](O)CC(=O)O4)[C@H]32)c1 [Compound 165, (1S,3R,7S,8S,8aR)-8-(2-((2R,4R)-4-hydroxy-6-oxotetrahydro-2H-pyran-2-yl)ethyl)-3,7-dimethyl-1,2,3,7,8,8a-hexahydronaphthalen-1-yl (8-(2-(((2S,4R)-1-((S)-2-(1-fluorocyclopropane-1-carboxamido)-3,3-dimethylbutanoyl)-4-hydroxypyrrolidine-2-carboxamido)methyl)-5-(4-methylthiazol-5-yl)phenoxy)octyl)carbamate]
Cc1ncsc1-c1ccc(CNC(=O)[C@@H]2C[C@@H](O)CN2C(=O)[C@@H](NC(=O)C2(F)CC2)C(C)(C)C)c(OCCCCCCCCCNC(=O)O[C@H]2C[C@@H](C)C=C3C=C[C@H](C)[C@H](CC[C@@H]4C[C@@H](O)CC(=O)O4)[C@H]32)c1 [Compound 166, (1S,3R,7S,8S,8aR)-8-(2-((2R,4R)-4-hydroxy-6-oxotetrahydro-2H-pyran-2-yl)ethyl)-3,7-dimethyl-1,2,3,7,8,8a-hexahydronaphthalen-1-yl (9-(2-(((2S,4R)-1-((S)-2-(1-fluorocyclopropane-1-carboxamido)-3,3-dimethylbutanoyl)-4-hydroxypyrrolidine-2-carboxamido)methyl)-5-(4-methylthiazol-5-yl)phenoxy)nonyl)carbamate]
Cc1ncsc1-c1ccc(CNC(=O)[C@@H]2C[C@@H](O)CN2C(=O)[C@@H](NC(=O)C2(F)CC2)C(C)(C)C)c(OCCCCCCCCCCNC(=O)O[C@H]2C[C@@H](C)C=C3C=C[C@H](C)[C@H](CC[C@@H]4C[C@@H](O)CC(=O)O4)[C@H]32)c1 [Compound 167, (1S,3R,7S,8S,8aR)-8-(2-((2R,4R)-4-hydroxy-6-oxotetrahydro-2H-pyran-2-yl)ethyl)-3,7-dimethyl-1,2,3,7,8,8a-hexahydronaphthalen-1-yl (10-(2-(((2S,4R)-1-((S)-2-(1-fluorocyclopropane-1-carboxamido)-3,3-dimethylbutanoyl)-4-hydroxypyrrolidine-2-carboxamido)methyl)-5-(4-methylthiazol-5-yl)phenoxy)decyl)carbamate]
Cc1ncsc1-c1ccc(CNC(=O)[C@H]2C[C@H](O)CN2C(=O)[C@H](NC(=O)C2(F)CC2)C(C)(C)C)c(OCC(=O)N2CCC(CCCNC(=O)O[C@H]3C[C@@H](C)C=C4C=C[C@H](C)[C@H](CC[C@@H]5C[C@@H](O)CC(=O)O5)[C@H]43)CC2)c1 [Compound 168, (1S,3R,7S,8S,8aR)-8-(2-((2R,4R)-4-hydroxy-6-oxotetrahydro-2H-pyran-2-yl)ethyl)-3,7-dimethyl-1,2,3,7,8,8a-hexahydronaphthalen-1-yl (3-(1-(2-(2-(((2R,4S)-1-((R)-2-(1-fluorocyclopropane-1-carboxamido)-3,3-dimethylbutanoyl)-4-hydroxypyrrolidine-2-carboxamido)methyl)-5-(4-methylthiazol-5-yl)phenoxy)acetyl)piperidin-4-yl)propyl)carbamate]
Cc1ncsc1-c1ccc(CNC(=O)[C@@H]2C[C@@H](O)CN2C(=O)[C@@H](NC(=O)C2(F)CC2)C(C)(C)C)c(OCCc2cn(CCCNC(=O)O[C@@H]3C[C@H](C)C=C4C=C[C@@H](C)[C@@H](CC[C@@H]5C[C@@H](O)CC(=O)O5)[C@@H]43)nn2)c1 [Compound 169, (1R,3S,7R,8R,8aS)-8-(2-((2R,4R)-4-hydroxy-6-oxotetrahydro-2H-pyran-2-yl)ethyl)-3,7-dimethyl-1,2,3,7,8,8a-hexahydronaphthalen-1-yl (3-(4-(2-(2-(((2S,4R)-1-((S)-2-(1-fluorocyclopropane-1-carboxamido)-3,3-dimethylbutanoyl)-4-hydroxypyrrolidine-2-carboxamido)methyl)-5-(4-methylthiazol-5-yl)phenoxy)ethyl)-1H-1,2,3-triazol-1-yl)propyl)carbamate]
